From US11072601B2, “μ-opioid receptor agonist and preparation method therefor and use thereof in field of medicine” (SHANGHAI SYNERGY PHARMACEUTICAL SCIENCES CO., LTD., priority 2017, dated 2021)
pEC50: −log10 of the molar value.

Experiments:
[1] = target: T1, μ opioid receptor (MOR) (Homo sapiens, UniProt P35372); assay: cell-based; conditions: HEK293 stably expressing μ opioid receptor, FLIPR calcium
T1 construct: host or cells: HEK293
Protocol: The purpose of the experiment was to test the agonistic effects of the compounds of the present invention on μ opioid receptor (MOR), κ opioid receptor (KOR) and δ opioid receptor (DOR), and to evaluate in vitro activity of the compounds according to the half-maximal effect concentration (EC50).
This test was performed using HEK293 cell lines (the stably expressed cell lines were provided by WuXi AppTec) which stably expressed μ opioid receptor, δ opioid receptor or κ opioid receptor respectively. […] The cells were centrifuged at 1000 rpm for 5 minutes at room temperature to precipitate. The supernatant was sucked out, be careful not to suck out cells. The precipitate was flicked into the loose cells and resuspend in 45 ml DMEM medium. The Vi-CELL XR automatic cell viability detector (BECKMAN COULTER) was used to count the cells, and the cell concentration was adjusted to 10×10^5 cells/ml based on the counting results.
Preparation of probenecid mother solution: 1 ml of FLIPR test solution was added to 77 mg probenecid to prepare a 250 mM solution. The solution was freshly prepared just before use.
The solution was freshly prepared just before use.
The cell plate prepared above was removed from the incubator and 20 ul 2× Fluo-4 Direct™ buffer was added thereto. The final volume in the cell plate was […]. The plate was incubated at 37° C., under 5% CO2 for 50 minutes, and incubated at room temperature for 10 minutes, then was placed into the FLIPR instrument (MD), and the compound plate and pipette box was placed into. The protocol was run on the […] platform, 10 μl of positive drug or the test compound was transfered to the cell plate from the compound plate, and the fluorescent signal was read.
The signal value generated by each well was calculated, and the calculation formula was that: the activity %=(signal value of the test compound−signal value of the solvent)/(signal value of the positive drug−signal value of the solvent).

[2] = target: T2, cAMP pathway of MOR receptor (Homo sapiens, UniProt P35372); assay: cell-based; conditions: cAMP Hunter HEK293 cells, forskolin-induced cAMP; read-out: EC50 of cAMP levels affected by agonistic effect on MOR
T2 construct: host or cells: HEK293 (cAMP Hunter cell line)
Description: The purpose of this experiment was to test the agonistic effect of the compounds of the invention on the cAMP pathway of MOR and to evaluate the in vitro activity of the compounds according to EC50.
In this experiment, HitHunter cAMP Assay EFC technology of DiscoverX was used to measure the cAMP level in cells and monitor the functional status of G-protein coupled receptors (GPCRs).
The amount of signal produced was directly proportional to the amount of cAMP in the cell.
The MOR receptor was bound to the inhibitory Gαi protein, so forskolin (for inducing cAMP signal) was used to induce cAMP expression in the experiment, and the inhibitory effect of the compounds on the above induction was measured.
The cAMP Hunter cell line (HEK293, DiscoverX) was removed from the freezer and expanded according to the Cell Standard Operating Procedure (SOP), 20 μL was collected and inoculated into a 384-well microplate and incubated at 37° C. overnight.
The HitHunter cAMP Assay test kit (DiscoverX, 90-0075sm) was used, the kit contained cAMP buffer, cAMP detection solution, and cAMP working solution A.
The formula was used to calculate the percentage of signal activity per well=100%×(1−(average RLU of the test samples−average RLU of the MAX controls)/(average RLU of the solvent controls−average RLU of the MAX controls)). wherein, the MAX control referred to the fluorescence signal value of the endorphin solution, and the solvent control referred to the fluorescence signal value of DMSO. The DiscoveRx CBIS data analysis workstation (ChemInnovation, CA) was used to perform statistical analysis of the percentage of signal activity and the concentration of the compounds by the agonist formula (comes with the software, universal) to calculate the EC50 value.

[3] = target: T3, β-arrestin signaling pathway of MOR (Homo sapiens, UniProt P35372); assay: cell-based; conditions: PathHunter HEK293 cells, relative to endorphin MAX control
T3 construct: host or cells: HEK293 (PathHunter cell line)

[4] = system: SD rats; assay: Respiratory depression in rats, arterial blood gas PCO2; format: in vivo
Description: 8-week-old male SD rats weighing 200 g-300 g were used as experimental animals to determine the effect of the compound of Example H05, the compound of Example H08, the compound of Example H10, the compound of Example H16, the compound of Example H17, the compound of Example H18, the compound of Example H21, and the compound of Example H24 on the partial pressure of blood in rats after intravenous administration. The effects of the compounds of the invention on respiratory depression were investigated.
After the rats were acclimatized to the experimental environment for 3 days, each animal was anesthetized with sodium pentobarbital (50-60 mg/kg, ip), and then the right common carotid artery was isolated and the unilateral carotid artery tube-bury surgery was performed (PE60, ID*OD*length as 0.76 mm*1.22 mm*20 cm, buried into the artery 1 cm deep, and the tube was filled with heparin sodium tube sealing solution).

T3 sequence (P35372 whole entry): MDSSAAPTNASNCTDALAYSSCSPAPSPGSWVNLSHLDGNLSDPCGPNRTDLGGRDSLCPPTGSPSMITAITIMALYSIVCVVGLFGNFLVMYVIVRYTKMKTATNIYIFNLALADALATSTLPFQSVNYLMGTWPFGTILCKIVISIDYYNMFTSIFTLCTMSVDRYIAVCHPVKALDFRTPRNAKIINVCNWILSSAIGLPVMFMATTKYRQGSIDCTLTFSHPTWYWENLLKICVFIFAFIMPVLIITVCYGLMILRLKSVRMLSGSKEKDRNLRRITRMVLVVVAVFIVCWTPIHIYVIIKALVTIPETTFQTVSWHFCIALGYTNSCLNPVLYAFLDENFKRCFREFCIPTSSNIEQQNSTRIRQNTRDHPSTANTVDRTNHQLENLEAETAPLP
T2 sequence (P35372 whole entry): as above
T1 sequence (P35372 whole entry, species assumed): as the sequence (P35372 whole entry) above

CNc1ccccc1CNCCC1(c2ccccn2)CCOC2(CCCC2)C1 (centres unmarked) [Example H03]
pEC50 [1]: 8.19 | pEC50 [2]: 8.36 | Emax [3]: 3.19%

FC(F)(F)Oc1ccc(CNCCC2(c3ccccn3)CCOC3(CCCC3)C2)cc1 (centres unmarked) [Example H06, (4-trifluoromethoxybenzyl)-[2-(9-(pyridin-2-yl)-6-oxaspiro[4.5]decan-9-yl)ethyl]amine]
pEC50 [1]: 8.21 | pEC50 [2]: 7.93 | Emax [3]: 0.66%

Fc1cnc(C2(CCNCc3ccccc3OC(F)(F)F)CCOC3(CCCC3)C2)c(Cl)c1 (centres unmarked) [Example H09, (2-trifluoromethoxybenzyl)-[2-(9-(3-chloro-5-fluoropyridin-2-yl)-6-oxaspiro[4.5]decan-9-yl)ethyl]amine]
pEC50 [1]: 8.39 | pEC50 [2]: 8.07 | Emax [3]: 3.28%

FC(F)(F)Oc1cc(Br)ccc1CNCCC1(c2ccccn2)CCOC2(CCCC2)C1 (centres unmarked) [Example H11, (4-bromo-2-trifluoromethoxybenzyl)-[2-(9-(pyridin-2-yl)-6-oxaspiro[4.5]decan-9-yl)ethyl]amine]
pEC50 [1]: 8.68 | pEC50 [2]: 8.14 | Emax [3]: 2.28%

Cc1ccc(CNCCC2(c3ccccn3)CCOC3(CCCC3)C2)c(OC(F)(F)F)c1 (centres unmarked) [Example H12, (4-methyl-2-trifluoromethoxybenzyl)-[2-(9-(pyridin-2-yl)-6-oxaspiro[4.5]decan-9-yl)ethyl]amine]
pEC50 [1]: 8.69 | pEC50 [2]: 8.26 | Emax [3]: 32.2%

N#Cc1cccc(CNCCC2(c3ccccn3)CCOC3(CCCC3)C2)c1OC(F)(F)F (centres unmarked) [Example H13]
pEC50 [1]: 8.29 | pEC50 [2]: 8.03 | Emax [3]: 3.41%

FC(F)(F)c1ccsc1CNCCC1(c2ccccn2)CCOC2(CCCC2)C1 (centres unmarked) [Example H14, ((3-trifluoromethylthiophen-2-yl)methyl)-[2-(9-(pyridin-2-yl)-6-oxaspiro[4.5]decan-9-yl)ethyl]a mine]
pEC50 [1]: 8.68 | pEC50 [2]: 7.80 | Emax [3]: 1.82%

Oc1ccc(CNCCC2(c3ccccn3)CCOC3(CCCC3)C2)c(OC(F)(F)F)c1 (centres unmarked) [Example H15, 4-{[2-(9-(pyridin-2-yl)-6-oxaspiro[4.5]decan-9-yl)ethylamine]methyl}-3-trifluoromethoxyphenol]
pEC50 [1]: 8.48 | pEC50 [2]: 8.37 | Emax [3]: 15.8%

FC(F)(F)c1ccc2c(c1)CN(CCC1(c3ccccn3)CCOC3(CCCC3)C1)CC2 (centres unmarked) [Example H19, 2-[2-(9-(pyridin-2-yl)-6-oxaspiro[4.5]decan-9-yl)ethyl]-7-trifluoromethyl-1,2,3,4-tetrahydroisoquinoline]
pEC50 [1]: 8.27 | pEC50 [2]: 7.73 | Emax [3]: 1.12%

COc1ccc2c(c1)CN(CCC1(c3ccccn3)CCOC3(CCCC3)C1)CC2 (centres unmarked) [Example H20, 7-methoxy-2-[2-(9-pyridin-2-yl-6-oxa-spiro[4.5]decan-9-yl)-ethyl]-1,2,3,4-tetrahydroisoquinoline]
pEC50 [1]: 8.45 | pEC50 [2]: 7.70 | Emax [3]: 2.12%

FC(F)(F)Oc1ccccc1CNCCC1(c2ccccn2)CCOC2(CCCC2)C1 (centres unmarked) [Example H22, (2-trifluoromethoxybenzyl)-[2-(9-pyridin-2-yl-6-oxa-spiro[4.5]decan-9-yl) -ethyl]-amine]
pEC50 [1]: 8.98 | pEC50 [2]: 7.92 | Emax [3]: 2.31%

c1ccc(C2(CCN3CCc4ccsc4C3)CCOC3(CCCC3)C2)nc1 (centres unmarked) [Example H23, 6-[2-(9-pyridin-2-yl-6-oxa-spiro[4.5]decan-9-yl)-ethyl]-4,5,6,7-tetrahydro-thieno[2,3-c]pyridine]
pEC50 [1]: 8.39 | pEC50 [2]: 8.01 | Emax [3]: 2.2%

CN1CC[C@]23c4c5ccc(O)c4O[C@H]2[C@@H](O)C=C[C@H]3[C@H]1C5 [morphine, reference compound]
PCO2, 5 min before administration ([4]; arterial blood, before administration): 36.41 ± 0.98 mmHg | PCO2, 5 min after administration ([4]; intravenous single dose 0.3 mg/kg (morphine 24 mg/kg), 5 min): 37.26 ± 1.18 mmHg | PCO2, 30 min after administration ([4]; intravenous single dose 0.3 mg/kg (morphine 24 mg/kg), 30 min): 40.94 ± 2.78 mmHg | PCO2, 60 min after administration ([4]; intravenous single dose 0.3 mg/kg (morphine 24 mg/kg), 60 min): 58.63 ± 3.53 mmHg | PCO2, 120 min after administration ([4]; intravenous single dose 0.3 mg/kg (morphine 24 mg/kg), 120 min): 56.9 ± 4.05 mmHg
